Results: patent publication US10501495B2, “Antimicrobial surface” (The University of Birmingham, priority 2014, dated 2019)
In brackets after ≈: the same amount, converted by molar mass. Where a SMILES comes first, the peptide text is derived from it. Primed or numbered codes have the meaning given here. Where no end group is shown, it is not given here. Linker = not defined here; FITC′ = not defined here

How the values were obtained:
P. aeruginosa = format: cell-based
Protocol: (§1) The antibacterial activity of various amino acid sequences was tested against S. aureus, P. aeruginosa and E. coli.

S. aureus = format: cell-based
Protocol: as §1

E. coli = format: cell-based
Protocol: as §1

[1] = Further release studies of linker-FITC peptides from surface under different temperatures and pH; format: physicochemical
Protocol: Further release studies were carried out to ascertain the strength of adherence of the peptides RKLPDA (SEQ ID NO: 12), RKLPDARKLPDA (SEQ ID NO: 13) and EEEEEEE (SEQ ID NO: 14) to the surface under different temperatures and pH. Each peptide comprised a linker-FITC sequence for fluorescence. Surfaces were coated with peptide as described for FIG. 1. The peptide-coated disks were incubated in PBS or in a balanced buffer at a set pH. Aliquots of the solution surrounding the surface were taken out at set time points and the fluorescence of the peptide in the solution monitored to establish the rate of peptide diffusion from the disk into the surrounding solution.

[2] = Binder-surface adherence of FITC-labelled binder peptide, fluorescence microscopy; format: physicochemical; conditions: hydroxyapatite disks and titanium squares, pH 7, room temperature, washed before imaging
Excerpt: This work established that the binder peptides interact with the surfaces

[3] = Release study of FITC peptide from hydroxyapatite disk into PBS (fluorescence); format: physicochemical
Protocol: A release study was carried out to ascertain the strength of adherence of the DDDDDDD (SEQ ID NO: 15)-Linker-FITC peptide to the hydroxyapatite surface. Disks of hydroxyapatite were incubated in 1 mg/ml peptide solutions for 1 hour and then washed thoroughly with PBS. The disk was then placed into a cuvette and surrounded with PBS solution (2 ml). The fluorescence of the solution around the disk was measured to ascertain the rate of peptide diffusion from the disk into the surrounding solution.

[4] = room temperature, balanced buffer pH 9 (FIG. 5)
[5] = room temperature, balanced pH 7 buffer (FIG. 4)

Question: For EEEEEEEE, which “Minimum inhibitory concentration (MIC) P. aeruginosa” value (P. aeruginosa) is on record?
Answer: none

Question: What about the “Minimum inhibitory concentration (MIC) S. aureus” value (S. aureus) of the same compound?
Answer: none

Question: And the “Minimum inhibitory concentration (MIC) E. coli” value (E. coli)?
Answer: none

Question: What does the source list for `N=C(N)NCCC[C@H](NC(=O)[C@H](CCCNC(=N)N)NC(=O)[C@H](CCCNC(=N)N)NC(=O)[C@H](CCCNC(=N)N)NC(=O)[C@H](CCCNC(=N)N)NC(=O)[C@@H](N)CCCNC(=N)N)C(=O)O` [RRRRRR]?
Answer: Minimum inhibitory concentration (MIC) P. aeruginosa (P. aeruginosa): 39 µg/mL (≈ 0.0408 mM); efficacy against P. aeruginosa (in words) (P. aeruginosa): surprisingly high efficacy; Minimum inhibitory concentration (MIC) S. aureus (S. aureus): 5000 µg/mL (≈ 5.23 mM); Minimum inhibitory concentration (MIC) E. coli (E. coli): 2500 µg/mL (≈ 2.62 mM)

Question: Which results are given for RRIYGRGYIRRRKLPDA [RRIYGRGYIRRRKLPDA]?
Answer: Minimum inhibitory concentration (MIC) P. aeruginosa (P. aeruginosa): 10000 µg/mL; Minimum inhibitory concentration (MIC) S. aureus (S. aureus): 10000 µg/mL; Minimum inhibitory concentration (MIC) E. coli (E. coli): 5000 µg/mL

Question: For GTCIYQRLNAF [GTCIYQRLNAF], which “Minimum inhibitory concentration (MIC) P. aeruginosa” value (P. aeruginosa) is on record?
Answer: 10000 µg/mL

Question: What about the “Minimum inhibitory concentration (MIC) S. aureus” value (S. aureus) of the same compound?
Answer: 10000 µg/mL

Question: And the “Minimum inhibitory concentration (MIC) E. coli” value (E. coli)?
Answer: 10000 µg/mL

Question: What does the source list for “RRIYGRGYIRREEEEEEEE [RRIYGRGYIRREEEEEEEE]”?
Answer: Minimum inhibitory concentration (MIC) P. aeruginosa (P. aeruginosa): 10000 µg/mL; Minimum inhibitory concentration (MIC) S. aureus (S. aureus): 5000 µg/mL; Minimum inhibitory concentration (MIC) E. coli (E. coli): 5000 µg/mL

Question: For “RKLPDARKLPDA (also: linker-FITC, site not given here)”, which “release of peptide from surface” value [1, 4] is on record?
Answer: not released

Question: And the “release of peptide from surface” value [1, 5]?
Answer: not released

Question: What does the source list for “EEEEEEE (also: linker-FITC, site not given here)”?
Answer: release of peptide from surface ([1]; 4° C., pH 7 PBS (FIG. 3)): released; release of peptide from surface ([1]; 37° C., pH 7 PBS (FIG. 2)): released; release of peptide from surface [1, 4]: released; release of peptide from surface [1, 5]: released; release in comparison to RKLPDA and RKLPDARKLPDA ([1]; room temperature, pH 4 (FIG. 6)): Increased release

Question: Which “Minimum inhibitory concentration (MIC) P. aeruginosa” value (P. aeruginosa) does the source give for PACIGERRY [PACIGERRY] here?
Answer: 10000 µg/mL

Question: What about the “Minimum inhibitory concentration (MIC) S. aureus” value (S. aureus) of the same compound?
Answer: 10000 µg/mL

Question: And the “Minimum inhibitory concentration (MIC) E. coli” value (E. coli)?
Answer: 10000 µg/mL

Question: For RRIYGRGYIRR [RRIYGRGYIRR], which “Minimum inhibitory concentration (MIC) P. aeruginosa” value (P. aeruginosa) is on record?
Answer: 2500 µg/mL

Question: And the “Minimum inhibitory concentration (MIC) S. aureus” value (S. aureus)?
Answer: 2500 µg/mL

Question: And the “Minimum inhibitory concentration (MIC) E. coli” value (E. coli)?
Answer: 1250 µg/mL

Question: Which “Minimum inhibitory concentration (MIC) P. aeruginosa” value (P. aeruginosa) does the source give for RLYLRIGRR [RLYLRIGRR] here?
Answer: 2000 µg/mL

Question: What about the “Minimum inhibitory concentration (MIC) S. aureus” value (S. aureus) of the same compound?
Answer: 500 µg/mL

Question: What about the “Minimum inhibitory concentration (MIC) E. coli” value (E. coli) of the same compound?
Answer: 250 µg/mL

Question: For `CC(C)C[C@H](NC(=O)CNC(=O)[C@H](CS)NC(=O)[C@@H](NC(=O)CN)[C@@H](C)O)C(=O)N1CCC[C@H]1C(=O)NCC(=O)N[C@H](C(=O)N[C@@H](CCCCN)C(=O)N[C@@H](CS)C(=O)N[C@@H](CS)C(=O)O)[C@@H](C)O` [GTCGLPGTKCC] (H-GTCGLPGTKCC-OH; N-terminus and C-terminus assumed), which “Minimum inhibitory concentration (MIC) P. aeruginosa” value (P. aeruginosa) is on record?
Answer: 5000 µg/mL (≈ 4.81 mM)

Question: What about the “Minimum inhibitory concentration (MIC) S. aureus” value (S. aureus) of the same compound?
Answer: 5000 µg/mL (≈ 4.81 mM)

Question: And the “Minimum inhibitory concentration (MIC) E. coli” value (E. coli)?
Answer: 10000 µg/mL (≈ 9.62 mM)

Question: Which results are given for “DDDDDDD (DDDDDDD-{Linker-FITC′}; not fully specified; reading uncertain)”?
Answer: adherence of FITC-labelled binder peptide to surfaces [2]: adhered well to the surfaces; rate of release from hydroxyapatite into surrounding solution ([3]; disk incubated in 1 mg/ml peptide 1 hour, PBS 2 ml): fairly slow rate; time up to which increases in fluorescence (release) were observed ([3]; hydroxyapatite disk in PBS): up to 10 hours

Question: With “RKLPDA (also: linker-FITC, site not given here)” as the compound, how does the “release of peptide from surface” value [1, 4] read?
Answer: not released

Question: What about the “release of peptide from surface” value [1, 5] of the same compound?
Answer: not released

Question: What about the “Minimum inhibitory concentration (MIC) P. aeruginosa” value (P. aeruginosa) of the same compound?
Answer: none

Question: And the “Minimum inhibitory concentration (MIC) S. aureus” value (S. aureus)?
Answer: none

Question: And the “Minimum inhibitory concentration (MIC) E. coli” value (E. coli)?
Answer: none
